Test results: ChEMBL document CHEMBL3045262, “Synthesis and Insecticidal Activity of Novel 1-Benzoyl-3-phenylurea Derivatives with Polyfluoroethylsulfenyl, -sulfonyl, and-sulfinyl Substituents” (1992)

Key:
Type in all cases: functional
Adoxophyes orana = test: Larvicidal activity against second-instar larvae of Adoxophyes orana infested soybean seedling assessed as mortality at 5 ppm measured after 7 days; settings: 168 h
Plutella xylostella = test: Larvicidal activity against second-instar larvae of Plutella xylostella (diamondback moth) infested raddish seedling assessed as mortality at 3.3 ppm sprayed 2 hr prior to infestation measured after 4 days
Spodoptera litura [1] = test: Larvicidal activity against third-instar larvae of Spodoptera litura infested in soybean seedling assessed as mortality at 2 ppm sprayed 6 days prior to infestation measured after 5 days
Spodoptera litura [2] = test: Larvicidal activity against third-instar larvae of Spodoptera litura infested in soybean seedling assessed as mortality at 2 ppm sprayed 1 day prior to infestation measured after 5 days

Row | Structure (SMILES) | mortality at 5 ppm (Adoxophyes orana) | mortality at 3.3 ppm (Plutella xylostella) | mortality at 2 ppm (Spodoptera litura [1]) | mortality at 2 ppm (Spodoptera litura [2])
1 | Cc1c(NC(=O)NC(=O)c2c(F)cccc2F)ccc(SC(F)(F)C(F)F)c1C | 100% | 100% | 100% | 100%
2 | Cc1cc([S+]([O-])C(F)(F)C(F)Cl)ccc1NC(=O)NC(=O)c1c(F)cccc1F (configuration not stated) | 100% | 100% | 100% | 100%
3 | Cc1cc(SC(F)(F)C(F)F)c(C)cc1NC(=O)NC(=O)c1c(F)cccc1F | 90% | 85% | 100% | 100%
4 | Cc1cc(SC(F)(F)C(F)Cl)c(C)cc1NC(=O)NC(=O)c1c(F)cccc1F (configuration not stated) | 95% | 100% | 100% | 100%
5 | Cc1c(NC(=O)NC(=O)c2c(F)cccc2F)ccc(SC(F)(F)C(F)Cl)c1C (configuration not stated) | 100% | 100% | 100% | 100%
6 | O=C(NC(=O)c1c(F)cccc1F)Nc1ccc([S+]([O-])C(F)(F)C(F)Cl)cc1Cl (configuration not stated) | 95% | 95% | 90% | 100%
7 | O=C(NC(=O)c1c(F)cccc1F)Nc1ccc(SC(F)(F)C(F)F)c(Cl)c1Cl | 100% | 100% | 100% | 100%
8 | Cc1c(NC(=O)NC(=O)c2c(F)cccc2F)ccc([S+]([O-])C(F)(F)C(F)Cl)c1C (configuration not stated) | 100% | 100% | 100% | 100%
9 | Cc1cc(SC(F)(F)C(F)F)ccc1NC(=O)NC(=O)c1c(F)cccc1F | 100% | 100% | 100% | 95%
10 | O=C(NC(=O)c1c(F)cccc1F)Nc1ccc([S+]([O-])C(F)(F)C(F)F)cc1F (configuration not stated) | 100% | 100% | 95% | 100%
11 | O=C(NC(=O)c1c(F)cccc1F)Nc1ccc(S(=O)(=O)C(F)(F)C(F)Cl)cc1 (configuration not stated) | – | – | 0% | 0%
12 | O=C(NC(=O)c1c(F)cccc1F)Nc1ccc(S(=O)(=O)C(F)(F)C(F)Cl)cc1Cl (configuration not stated) | 100% | 95% | 100% | 100%
13 | O=C(NC(=O)c1c(F)cccc1F)Nc1ccc([S+]([O-])C(F)(F)C(F)Cl)c(Cl)c1Cl (configuration not stated) | 100% | 100% | 100% | 100%
14 | Cc1cc([S+]([O-])C(F)(F)C(F)F)c(C)cc1NC(=O)NC(=O)c1c(F)cccc1F (configuration not stated) | 100% | 100% | 100% | 100%
15 | Cc1cc([S+]([O-])C(F)(F)C(F)F)ccc1NC(=O)NC(=O)c1c(F)cccc1F (configuration not stated) | 100% | 100% | 100% | 100%
16 | O=C(NC(=O)c1c(F)cccc1F)Nc1ccc([S+]([O-])C(F)(F)C(F)Cl)cc1F (configuration not stated) | 100% | 100% | 100% | 100%
17 | O=C(NC(=O)c1c(F)cccc1F)Nc1ccc(SC(F)(F)C(F)Cl)cc1Br (configuration not stated) | 100% | 95% | 100% | 100%
18 | O=C(NC(=O)c1c(F)cccc1F)Nc1cc(Cl)c([S+]([O-])C(F)(F)C(F)Cl)cc1Cl (configuration not stated) | 100% | 100% | 100% | 100%
19 | O=C(NC(=O)c1c(F)cccc1F)Nc1ccc(S(=O)(=O)C(F)(F)C(F)Br)cc1Br (configuration not stated) | 85% | 20% | 95% | 100%
20 | O=C(NC(=O)c1c(F)cccc1F)Nc1ccc([S+]([O-])C(F)(F)C(F)F)c(Cl)c1Cl (configuration not stated) | 85% | 100% | 100% | 100%
21 | O=C(NC(=O)c1c(F)cccc1F)Nc1ccc(S(=O)(=O)C(F)(F)C(F)Cl)cc1F (configuration not stated) | 100% | 100% | 100% | 100%
22 | Cc1c(NC(=O)NC(=O)c2c(F)cccc2F)ccc(S(=O)(=O)C(F)(F)C(F)F)c1C | 100% | 100% | 100% | 100%
23 | O=C(NC(=O)c1c(F)cccc1F)Nc1ccc(SC(F)(F)C(F)Cl)cc1 (configuration not stated) | 40% | 100% | 45% | 65%
24 | O=C(NC(=O)c1c(F)cccc1F)Nc1ccc(SC(F)(F)C(F)Cl)cc1F (configuration not stated) | 100% | 100% | 100% | 100%
25 | Cc1cc(SC(F)(F)C(F)Cl)ccc1NC(=O)NC(=O)c1c(F)cccc1F (configuration not stated) | 95% | 100% | 100% | 100%

Row | Structure (SMILES) | mortality at 5 ppm (Adoxophyes orana) | mortality at 3.3 ppm (Plutella xylostella) | mortality at 2 ppm (Spodoptera litura [1]) | mortality at 2 ppm (Spodoptera litura [2])
26 | O=C(NC(=O)c1c(F)cccc1F)Nc1ccc(S(=O)(=O)C(F)(F)C(F)F)cc1F | 100% | 100% | 100% | 100%
27 | O=C(NC(=O)c1c(F)cccc1F)Nc1ccc(SC(F)(F)C(F)F)cc1Cl | 100% | 100% | 100% | 100%
28 | O=C(NC(=O)c1c(F)cccc1F)Nc1ccc(SC(F)(F)C(F)Cl)c(Cl)c1Cl (configuration not stated) | 100% | 95% | 100% | 100%
29 | O=C(NC(=O)c1c(F)cccc1F)Nc1ccc(SC(F)(F)C(F)F)cc1F | 80% | 100% | 100% | 100%
30 | Cc1c(NC(=O)NC(=O)c2c(F)cccc2F)ccc(S(=O)(=O)C(F)(F)C(F)Cl)c1C (configuration not stated) | 100% | 100% | 100% | 100%
31 | O=C(NC(=O)c1c(F)cccc1F)Nc1ccc(SC(F)(F)C(F)Cl)cc1Cl (configuration not stated) | 100% | 100% | 100% | 100%
32 | Cc1cc(S(=O)(=O)C(F)(F)C(F)Cl)ccc1NC(=O)NC(=O)c1c(F)cccc1F (configuration not stated) | 95% | 100% | 100% | 100%
33 | O=C(NC(=O)c1c(F)cccc1F)Nc1cc(Cl)c(S(=O)(=O)C(F)(F)C(F)Cl)cc1Cl (configuration not stated) | 100% | 100% | 95% | 100%
34 | O=C(NC(=O)c1c(F)cccc1F)Nc1ccc(SC(F)(F)C(F)F)cc1 | 5% | 100% | 20% | 55%
35 | O=C(NC(=O)c1c(F)cccc1F)Nc1ccc(SC(F)(F)C(F)F)cc1Br | 100% | 100% | 100% | 100%
36 | O=C(NC(=O)c1c(F)cccc1F)Nc1cc(Cl)c(SC(F)(F)C(F)F)cc1Cl | 100% | 100% | 85% | 100%
37 | Cc1cc(NC(=O)NC(=O)c2c(F)cccc2F)ccc1S(=O)(=O)C(F)(F)C(F)F | 25% | 100% | 60% | 70%
38 | O=C(NC(=O)c1c(F)cccc1F)Nc1cc(Cl)c(SC(F)(F)C(F)Cl)cc1Cl (configuration not stated) | 100% | 100% | 100% | 100%
39 | Cc1cc(S(=O)(=O)C(F)(F)C(F)F)ccc1NC(=O)NC(=O)c1c(F)cccc1F | 100% | 100% | 100% | 100%
40 | Cc1cc(NC(=O)NC(=O)c2c(F)cccc2F)ccc1SC(F)(F)C(F)F | 0% | 100% | 100% | 100%
41 | Cc1cc([S+]([O-])C(F)(F)C(F)Cl)c(C)cc1NC(=O)NC(=O)c1c(F)cccc1F (configuration not stated) | 100% | 100% | 100% | 100%
42 | O=C(NC(=O)c1c(F)cccc1F)Nc1cc(Cl)c(S(=O)(=O)C(F)(F)C(F)F)cc1Cl | 90% | 95% | 95% | 100%
43 | O=C(NC(=O)c1c(F)cccc1F)Nc1ccc(S(=O)(=O)C(F)(F)C(F)Cl)c(Cl)c1Cl (configuration not stated) | 100% | 100% | 100% | 100%
44 | O=C(NC(=O)c1c(F)cccc1F)Nc1ccc([S+]([O-])C(F)(F)C(F)F)cc1 (configuration not stated) | – | 100% | 15% | 5%
45 | Cc1cc(S(=O)(=O)C(F)(F)C(F)F)c(C)cc1NC(=O)NC(=O)c1c(F)cccc1F | 95% | 100% | 100% | 100%
46 | Cc1cc(S(=O)(=O)C(F)(F)C(F)Cl)c(C)cc1NC(=O)NC(=O)c1c(F)cccc1F (configuration not stated) | 100% | 100% | 100% | 100%
47 | O=C(NC(=O)c1c(F)cccc1F)Nc1ccc(S(=O)(=O)C(F)(F)C(F)F)cc1Br | 40% | 65% | 85% | 100%
48 | O=C(NC(=O)c1c(F)cccc1F)Nc1cc(Cl)c([S+]([O-])C(F)(F)C(F)F)cc1Cl (configuration not stated) | 75% | 100% | 100% | 100%
49 | O=C(NC(=O)c1c(F)cccc1F)Nc1ccc(S(=O)(=O)C(F)(F)C(F)F)cc1 | – | 90% | 0% | 0%
